Measured values published in ChEMBL document CHEMBL1687768, “Liposomal amphotericin B and echinocandins as monotherapy or sequential or concomitant therapy in murine disseminated and pulmonary Aspergillus fumigatus infections” (Antimicrob Agents Chemother, 2010).
Values after ≈ are worked out from the molar mass of the structure shown. Active and inactive are the calls of the source. The calls are words filed in the database; no cut-off is given here. Starred links: 1 amine or outer side, 2 acyl side, 3 side chain; linkers in the order of their positions; H or OH if unused. Positions of bridges follow the written chain, without caps; N, C: chain ends. Non-standard residues stand in square brackets, D forms with d. Residues, ends and D or L forms follow the SMILES beside them. *: point of attachment. hTyr(3S-OH,4S-OH,3'-OSO3H) = N[C@H](C(=O)O)[C@H](O)[C@@H](O)c1ccc(O)c(OS(=O)(=O)O)c1; Orn(4R-OH,5R-OH) = O=C([C@H](C[C@@H](O)[C@@H](O)N[*:3])N[*:1])[*:2]; Pro(3S-OH,4S-Me) = C[C@H]1CN[C@H](C(=O)O)[C@H]1O; X1 = CCCCCOc1ccc(-c2cc(-c3ccc(C(=O)*)cc3)no2)cc1; Gln(3R-OH) = NC(=O)C[C@@H](O)[C@H](N)C(=O)O; Hyp = O=C(O)[C@@H]1C[C@@H](O)CN1

Key:
Aspergillus fumigatus [1] = test: Antifungal activity against Aspergillus fumigatus ATCC 13073; format: functional
Aspergillus fumigatus [2] = test: Antifungal activity against Aspergillus fumigatus ATCC 13073 infected in immunosuppressed Swiss Webster mouse assessed as increase in survival rate at 5 mg/kg, iv for 6 days treated 24 hrs postinfection measured after 28 days; format: functional, organism-based; design: dose 5 mg/kg
Kidney [3] = test: Drug level in immunosuppressed Swiss Webster mouse kidney with pulmonary aspergillosis assessed as compound level per gram of tissue at 5 mg/kg/day, iv for 5 days measured on day 6; format: ADME, organism-based; design: route intravenous; details: in vivo, 120 h
Spleen [4] = test: Drug level in immunosuppressed Swiss Webster mouse spleen with pulmonary aspergillosis assessed as compound level per gram of tissue at 5 mg/kg/day, iv for 5 days measured on day 6; format: ADME, organism-based; design: route intravenous; details: in vivo, 120 h
Aspergillus fumigatus [5] = test: Antifungal activity against Aspergillus fumigatus ATCC 13073 infected Swiss Webster mouse pulmonary aspergillosis model assessed as organism survival at 5 mg/kg/day, iv for 5 days dosed 2 hrs post challenge; format: functional
Aspergillus fumigatus [6] = test: Antifungal activity against Aspergillus fumigatus ATCC 13073 infected in immunosuppressed Swiss Webster mouse assessed as survival rate at 5 mg/kg, iv for 6 days treated 24hrs postinfection measured after 28 days; format: functional
Aspergillus fumigatus [7] = test: Antifungal activity against Aspergillus fumigatus ATCC 13073 infected in immunosuppressed Swiss Webster mouse assessed as survival rate at 15 mg/kg, iv for 6 days measured after 28 days; format: functional
Aspergillus fumigatus [8] = test: Antifungal activity against Aspergillus fumigatus ATCC 13073 infected in immunosuppressed Swiss Webster mouse assessed as reduction in fungal burden in kidney at 5 mg/kg, iv for 6 days measured 24 hrs after last dose relative to control; format: functional, organism-based; design: dose 5 mg/kg
Aspergillus fumigatus [9] = test: Antifungal activity against Aspergillus fumigatus ATCC 13073 infected in immunosuppressed Swiss Webster mouse assessed as reduction in fungal burden in spleen at 5 mg/kg, iv for 6 days treated 24 hrs postinfection measured 24 hrs after last dose relative to control; format: functional, organism-based; design: dose 5 mg/kg
Aspergillus fumigatus [10] = test: Antifungal activity against Aspergillus fumigatus ATCC 13073 infected in immunosuppressed Swiss Webster mouse assessed as reduction in fungal burden in spleen at 10 mg/kg, iv for 6 days treated 24 hrs postinfection measured 24 hrs after last dose relative to control; format: functional, organism-based; design: dose 10 mg/kg
Aspergillus fumigatus [11] = test: Antifungal activity against Aspergillus fumigatus ATCC 13073 infected in immunosuppressed Swiss Webster mouse assessed as reduction in fungal burden in spleen at 15 mg/kg, iv for 6 days treated 24 hrs postinfection measured 24 hrs after last dose by galactomnnan assay relative to control; format: functional, organism-based; design: dose 15 mg/kg
Spleen [12] = test: Drug level in immunosuppressed Swiss Webster mouse spleen with disseminated aspergillosis assessed as compound level per gram of tissue at 5 mg/kg/day, iv for 7 days measured on day 8; format: ADME, organism-based; design: route intravenous; details: in vivo, 168 h
Spleen [13] = test: Drug level in immunosuppressed Swiss Webster mouse spleen with disseminated aspergillosis assessed as compound level per gram of tissue at 10 mg/kg/day, iv for 7 days measured on day 8; format: ADME, organism-based; design: route intravenous; details: in vivo, 168 h
Spleen [14] = test: Drug level in immunosuppressed Swiss Webster mouse spleen with disseminated aspergillosis assessed as compound level per gram of tissue at 15 mg/kg/day, iv for 7 days measured on day 8; format: ADME, organism-based; design: route intravenous; details: in vivo, 168 h
Kidney [15] = test: Drug level in immunosuppressed Swiss Webster mouse Kidney with disseminated aspergillosis assessed as compound level per gram of tissue at 5 mg/kg/day, iv for 7 days measured on day 8; format: ADME, organism-based; design: route intravenous; details: in vivo, 168 h
Kidney [16] = test: Drug level in immunosuppressed Swiss Webster mouse Kidney with disseminated aspergillosis assessed as compound level per gram of tissue at 10 mg/kg/day, iv for 7 days measured on day 8; format: ADME, organism-based; design: route intravenous; details: in vivo, 168 h
Kidney [17] = test: Drug level in immunosuppressed Swiss Webster mouse Kidney with disseminated aspergillosis assessed as compound level per gram of tissue at 15 mg/kg/day, iv for 7 days measured on day 8; format: ADME, organism-based; design: route intravenous; details: in vivo, 168 h
Aspergillus fumigatus [18] = test: Antifungal activity against Aspergillus fumigatus ATCC 13073 infected in immunosuppressed Swiss Webster mouse assessed as reduction in fungal burden in kidney at 5 mg/kg, iv for 3 days treated 4 days postinfection relative to control; format: functional, organism-based; design: dose 5 mg/kg
Aspergillus fumigatus [19] = test: Antifungal activity against Aspergillus fumigatus ATCC 13073 infected in immunosuppressed Swiss Webster mouse assessed as reduction in fungal burden in spleen at 5 mg/kg, iv for 3 days treated 4 days postinfection relative to control; format: functional, organism-based; design: dose 5 mg/kg

## CC[C@H](C)C[C@H](C)CCCCCCCCC(=O)N[C@H]1C[C@@H](O)[C@@H](NCCN)NC(=O)[C@@H]2[C@@H](O)CCN2C(=O)[C@H]([C@H](O)CCN)NC(=O)[C@H]([C@H](O)[C@@H](O)c2ccc(O)cc2)NC(=O)[C@@H]2C[C@@H](O)CN2C(=O)[C@H]([C@@H](C)O)NC1=O [CASPOFUNGIN]
Aspergillus fumigatus [1]
  MIC: 0.31 µg/mL (≈ 0.284 µM)
Aspergillus fumigatus [2]
  Activity: Active
Kidney [3]
  tissue concentration: 14.4 µg/g
Spleen [4]
  tissue concentration: 31.6 µg/g
Aspergillus fumigatus [5]
  survival at 5 mg/kg/day: 0%

## CCCCCOc1ccc(-c2cc(-c3ccc(C(=O)N[C@H]4C[C@@H](O)[C@@H](O)NC(=O)[C@@H]5[C@@H](O)[C@@H](C)CN5C(=O)[C@H]([C@H](O)CC(N)=O)NC(=O)[C@H]([C@H](O)[C@@H](O)c5ccc(O)c(OS(=O)(=O)O)c5)NC(=O)[C@@H]5C[C@@H](O)CN5C(=O)[C@H]([C@@H](C)O)NC4=O)cc3)no2)cc1 [MICAFUNGIN] (X1-[Orn(4R-OH,5R-OH)]T[Hyp][hTyr(3S-OH,4S-OH,3'-OSO3H)][Gln(3R-OH)][Pro(3S-OH,4S-Me)]; lactam 1-C)
Aspergillus fumigatus [1]
  MIC: 0.31 µg/mL (≈ 0.244 µM)
Aspergillus fumigatus [6]
  survival at 5 mg/kg: 86%
Aspergillus fumigatus [7]
  survival at 15 mg/kg: 57%
Aspergillus fumigatus [8]
  Activity: Active
Aspergillus fumigatus [9]
  Activity: Active
Aspergillus fumigatus [10]
  Activity: Active
Aspergillus fumigatus [11]
  Activity: Active
Spleen [12]
  tissue concentration: 17.9 µg/g
Spleen [13]
  tissue concentration: 33.6 µg/g
Spleen [14]
  tissue concentration: 32.7 µg/g
Kidney [15]
  tissue concentration: 5.6 µg/g
Kidney [16]
  tissue concentration: 25.2 µg/g
Kidney [17]
  tissue concentration: 22.5 µg/g
Aspergillus fumigatus [18]
  Activity: inactive
Aspergillus fumigatus [19]
  Activity: inactive
